Where a name gives a salt, the structure may show the parent alone.
These compounds were tested on platelet aggregation in human platelet rich plasma (PRP) (assay: Platelet Aggregation Assay (platelet rich plasma, with or without esterase pretreatment)). Settings: Platelet, preincubated with 100 IU/mL porcine liver esterase 2 hours at 37° C., 100 μM ADP, read-out: Platelet Aggregation Assay IC50 (with esterase).
Type: cell-based
Protocol: Venous blood was obtained from the arm of a healthy human donor who was drug-free and aspirin-free for at least two weeks prior to blood collection. Blood was collected into 10 mL citrated Vacutainer tubes. The blood was centrifuged for 15 minutes at 150×g at room temperature, and platelet-rich plasma (PRP) was removed. The remaining blood was centrifuged for 15 minutes at 1500×g at room temperature, and platelet-poor plasma (PPP) was removed. Samples were assayed on a aggregometer (PAP-4 Platelet Aggregation Profiler), using PPP as the blank (100% transmittance). 200 μL of PRP was added to each micro test tube, and transmittance was set to 0%. 20 μL of various agonists (ADP, collagen, arachidonate, epinephrine, thrombin) were added to each tube, and the aggregation profiles were plotted (% transmittance versus time). The results are expressed as % inhibition of agonist-induced platelet aggregation. For the IC50 evaluation, the test compounds were added at various concentrations prior to the activation of the platelets.
Ester prodrugs were preincubated (10^-3 M F.C.) with 100 IU/mL Porcine liver esterase (Sigma Chemical Co., St. Louis, Mo., #E-3128) for 2 hours at 37° C. Aliquots are then diluted in 0.1M Tris, pH 7.4, to the desired concentrations. Aliquots of 20 μl of the esterase pretreated prodrugs are added to 200 μl of human platelet rich plasma. Samples were placed in platelet profiler (aggregometer) for 8 minutes at 37° C., followed by the addition of 100 μM Adenosine Diphosphate, (Sigma Chemical Co., St. Louis, Mo., #A-6521), to induce platelet aggregation. Platelet aggregation was allowed to proceed for 5 minutes. Percent inhibition is calculated using percent aggregation in the presence of the test compound divided by percent aggregation of control, times 100. This value is subtracted from 100, yielding percent inhibition. Calculation of IC50 is performed on a Texas Instruments TI59 with an IC50 program.
Table A below sets forth the antiplatelet activity of representative compounds of the present invention. The indicated compounds were tested for their ability to inhibit platelet aggregation (using platelet rich plasma (PRP)). The IC50 value (the concentration of antagonist which inhibits platelet aggregation by 50% relative to a control lacking the antagonist) is shown. In Table 5 the IC50 values are expressed as: +++=IC50 of <10 μM; ++=IC50 of 10-50 μM; +=IC50 of 50-100 μM (μM=micromolar).

| SMILES | IC50 [µM] |
| --- | --- |
| COC(=O)CC(NC(=O)CC1CC(c2ccc(C(=N)N)cc2)=NO1)c1ccccc1 (centres unmarked) [Example 89] | < 10 |
| CCC(CC(=O)OC)NC(=O)CC1CC(c2ccc(C(=N)N)cc2)=NO1 (centres unmarked) [Example 115] | < 10 |
| COC(=O)C[C@@H](CCc1ccccc1)NC(=O)CC1CC(c2ccc(C(=N)N)cc2)=NO1 (stereo partly drawn) [Example 120a, Methyl 3(R)-{5(R,S)-N-[3-(4-amidinophenyl)isoxazolin-5-ylacetyl]amino}-3-phenethylpropanoate] | < 10 |
| COC(=O)C[C@H](CCc1ccccc1)NC(=O)CC1CC(c2ccc(C(=N)N)cc2)=NO1 (stereo partly drawn) [Example 120b, Methyl 3(S)-{5(R,S)-N-[3-(4-amidinophenyl)isoxazolin-5-ylacetyl]amino}-3-phenethylpropanoate] | < 10 |
| CCOC(=O)CC(CN(C)C)NC(=O)CC1CC(c2ccc(C(=N)N)cc2)=NO1 (centres unmarked) [Example 166] | < 10 |
| N=C(N)c1ccc(C2=NOC(CC(=O)NC[C@H](N)C(=O)O)C2)cc1 (stereo partly drawn) [Example 275, N^3-[3-(4-amidinophenyl)isoxazolin-5(R,S)-ylacetyl]-L-2,3-diaminopropionic acid TFA salt] | < 10 |
| N=C(N)c1ccc(C2=NOC(CC(=O)NC[C@H](NC(=O)OCc3ccccc3)C(=O)O)C2)cc1 (stereo partly drawn) [Example 276, N^2 -Cbz-N^3-[3-(4-amidinophenyl)isoxazolin-5(R, S) -ylacetyl]-L-2,3-diaminopropionic acid TFA salt] | < 10 |
| CCCCOC(=O)N[C@@H](CNC(=O)CC1CC(c2ccc(C(=N)N)cc2)=NO1)C(=O)O (stereo partly drawn) [Example 278, N^2-n-butyloxycarbonyl-N^3-[3-(4-amidinophenyl)isoxazolin-5(R, S)-ylacetyl]-L-2,3-diaminopropionic acid TFA salt] | < 10 |
| Cc1ccc(S(=O)(=O)NC(CNC(=O)CC2CC(c3ccc(C(=N)N)cc3)=NO2)C(=O)O)cc1 (centres unmarked) [Example 300] | < 10 |
| COC(=O)C(CNC(=O)CC1CC(c2ccc(C(=N)N)cc2)=NO1)NC(=O)OCc1ccccc1 (centres unmarked) [Example 312] | < 10 |
| CCCCOC(=O)N[C@@H](CNC(=O)C[C@@H]1CC(c2ccc(C(=N)N)cc2)=NO1)C(=O)OC [Example 314A, Methyl N^2-n-butyloxycarbonyl-N^3-[3-(4-amidinophenyl)isoxazolin-5(S)-ylacetyl]-(S)-2,3-diaminopropionate TFA salt] | < 10 |
| CCCCOC(=O)N[C@@H](CNC(=O)C[C@H]1CC(c2ccc(C(=N)N)cc2)=NO1)C(=O)OC [Example 314B, Methyl-N^2-n-butyloxycarbonyl-N^3-[3-(4-amidinophenyl)isoxazolin-5(R)-ylacetyl]-(S)-2,3-diaminopropionate TFA salt] | < 10 |
| COC(=O)C(CNC(=O)CC1CC(c2ccc(C(=N)N)cc2)=NO1)NS(C)(=O)=O (centres unmarked) [Example 323] | < 10 |
| CCS(=O)(=O)NC(CNC(=O)CC1CC(c2ccc(C(=N)N)cc2)=NO1)C(=O)OC (centres unmarked) [Example 324] | < 10 |
| COC(=O)C(CNC(=O)CC1CC(c2ccc(C(=N)N)cc2)=NO1)NS(=O)(=O)c1ccccc1 (centres unmarked) [Example 326] | < 10 |
| COC(=O)[C@H](CNC(=O)CC1CC(c2ccc(C(=N)N)cc2)=NO1)NS(=O)(=O)c1ccc(C)cc1 (some centres unmarked) [Example 327] | < 10 |
| CCCC[C@H](CC(=O)OC)NC(=O)CC1CC(c2ccc(C(=N)N)cc2)=NO1 (stereo partly drawn) [Example 344, Methyl 3(R)-{5(R,S)-N-[3-(4-Amidinophenyl)isoxazolin-5-ylacetyl]amino}heptanoate] | < 10 |
| CCCCC(CC(=O)OCC)NC(=O)CC1CC(c2ccc(C(=N)N)cc2)=NO1 (centres unmarked) [Example 345] | < 10 |

| SMILES | IC50 [µM] |
| --- | --- |
| CCOC(=O)C[C@@H](CC(C)C)NC(=O)CC1CC(c2ccc(C(=N)N)cc2)=NO1 (stereo partly drawn) [Example 348, Ethyl 3(R)-{5(R,S)-N-[3-(4-amidinophenyl)isoxazolin-5-ylacetyl]amino}-5-methylhexanoate . trifluoroacetic acid salt] | < 10 |
| COC(=O)CC1CCCCN1C(=O)CC1CC(c2ccc(C(=N)N)cc2)=NO1 (centres unmarked) [Example 394] | < 10 |
| CCOC(=O)CC1CCCCN1C(=O)CC1CC(c2ccc(C(=N)N)cc2)=NO1 (centres unmarked) [Example 413] | < 10 |
| CCOC(=O)CC1CCCCCN1C(=O)CC1CC(c2ccc(C(=N)N)cc2)=NO1 (centres unmarked) [Example 415] | < 10 |
| N=C(N)c1ccc(C2=NOC(CC(=O)N[C@@H](CC(=O)O)C(=O)NCCc3ccccc3)C2)cc1 (stereo partly drawn) [Example 435, (S)-N^α -[3-(4-Amidinophenyl)-isoxazolin-5-(R,S)-ylacetyl]-α-aspart-N-(2-phenylethyl)amide, trifluoroacetic acid salt] | < 10 |
| CCOC(=O)CC(NC(=O)CC1CC(c2ccc(C(=N)N)cc2)=NO1)C(=O)OCC (centres unmarked) [Example 439] | < 10 |
| COC(=O)C(CNC(=O)CC1CC(c2ccc(C(N)=NC(=O)OC(C)(C)C)cc2)=NO1)NC(=O)OCc1ccccc1 (centres unmarked) [Example 440] | < 10 |
| COC(=O)CC(CCCc1ccccc1)NC(=O)CC1CC(c2ccc(C(=N)N)cc2)=NO1 (centres unmarked) [Example 446] | < 10 |
| COC(=O)CC(CCc1ccncc1)NC(=O)CC1CC(c2ccc(C(=N)N)cc2)=NO1 (centres unmarked) [Example 450] | < 10 |
| CCCCOC(=O)NC(CNC(=O)CC1CC(CCC2CCNCC2)=NO1)C(=O)OC (centres unmarked) [Example 451] | < 10 |
| COC(=O)CC(NC(=O)CC1CC(c2ccc(C(=N)N)cc2)=NO1)C(=O)NCCc1ccccc1 (centres unmarked) [Example 452] | < 10 |
| COC(=O)CC(NC(=O)CC1CC(c2ccc(C(N)=NC(=O)OC(C)(C)C)cc2)=NO1)C(=O)N1CCN(Cc2ccccc2)CC1 (centres unmarked) [Example 453] | < 10 |
| COC(=O)CC(NC(=O)CC1CC(c2ccc(C(=N)N)cc2)=NO1)C(=O)N(C)CCc1ccccc1 (centres unmarked) [Example 454] | < 10 |
| COC(=O)CC(NC(=O)CC1CC(c2ccc(C(=N)N)cc2)=NO1)C(=O)N1CCN(Cc2ccccc2)CC1 (centres unmarked) [Example 455] | < 10 |
| COC(=O)CC(C#C[Si](C)(C)C)NC(=O)CC1CC(c2ccc(C(=N)N)cc2)=NO1 (centres unmarked) [Example 457] | < 10 |
| CCOC(=O)CC(NC(=O)CC1CC(c2ccc(C(=N)N)cc2)=NO1)C(=O)NCC12CC3CC(CC(C3)C1)C2 (centres unmarked) [Example 462] | < 10 |
| COC(=O)CC(NC(=O)CC1CC(c2ccc(C(=N)N)cc2)=NO1)C(=O)N1CCCc2ccccc21 (centres unmarked) [Example 464] | < 10 |
| COC(=O)CC(NC(=O)CC1CC(c2ccc(C(=N)N)cc2)=NO1)C(=O)N1CCc2ccccc2C1 (centres unmarked) [Example 465] | < 10 |

Same assay, conditions: Platelet, without esterase, read-out: Platelet Aggregation Assay IC50 (without esterase)

| SMILES | IC50 [µM] |
| --- | --- |
| O=C(N[C@H](C(=O)O)C1CC(c2ccc(OCCC3CCNCC3)cc2)=NO1)OCc1ccccc1 (single isomer, unassigned) [4 (isomer B), Trifluoroacetic Acid Salt] | 10 to 50 |
| CCCCS(=O)(=O)NC(CC1CC(c2ccc(OCC3CCNCC3)cc2)=NO1)C(=O)O (single isomer, unassigned) [9 (isomer A)] | < 10 |
| O=C(O)CCCN1C(=O)CC2(CC(CCC3CCNCC3)=NO2)C1=O (centres unmarked) [Example 190] | 50 to 100 |
| O=C(O)CCCN1C(=O)CC2(CC(CCCC3CCNCC3)=NO2)C1=O (centres unmarked) [Example 373] | 10 to 50 |
| N=C(N)c1ccc(C2=NOC(CC(=O)N3CCCCC3CC(=O)O)C2)cc1 [Example 375, 2-(R,S)-2-Carboxymethyl-1-{5-(R,S)-N-[3-(4-amidinophenyl)isoxazolin-5-ylacetyl]}piperidine] | < 10 |
| N=C(N)c1ccc(C2=NOC(CC(=O)NC(CC(=O)O)C(=O)NCC34CC5CC(CC(C5)C3)C4)C2)cc1 (centres unmarked) [Example 463] | < 10 |

Same assay, conditions: preincubated with 100 IU/mL porcine liver esterase 2 hours at 37° C., 100 μM ADP, read-out: Platelet Aggregation Assay IC50 (with esterase)

| SMILES | IC50 [µM] |
| --- | --- |
| COC(=O)C[C@@H](Cc1ccccc1)NC(=O)CC1CC(c2ccc(C(=N)N)cc2)=NO1 (stereo partly drawn) [119A (3R)] | < 10 |
| COC(=O)C[C@H](Cc1ccccc1)NC(=O)CC1CC(c2ccc(C(=N)N)cc2)=NO1 (stereo partly drawn) [119B (3S)] | < 10 |
| COC(=O)C[C@@H](CCc1ccccc1)NC(=O)C[C@H]1CC(c2ccc(C(=N)N)cc2)=NO1 [120C (3R)] | < 10 |
| COC(=O)[C@H](CNC(=O)CC1CC(c2ccc(C(=N)N)cc2)=NO1)NS(=O)(=O)Cc1ccccc1 (stereo partly drawn) [328 (2S)] | < 10 |

Same assay, conditions: without esterase, read-out: Platelet Aggregation Assay IC50 (without esterase)

| SMILES | IC50 [µM] |
| --- | --- |
| CCCCS(=O)(=O)NC(CC1CC(c2ccc(OCC3CCNCC3)cc2)=NO1)C(=O)O (single isomer, unassigned) [9 (isomer B), 3-(3-[4-{(Piperidin-4-yl)methoxy}phenyl]isoxazolin-5-yl{[butanesulfonyl]amino}]propionic Acid, Trifluoroacetic Acid Salt (Less Polar Diastereomer)] | < 10 |

Reference: patent US5849736A, “Isoxazoline and isoxazole fibrinogen receptor antagonists” (The DuPont Merck Pharmaceutical Company, priority 1995, dated 1998)
